Measurements published in ChEMBL document CHEMBL1201862, “PubChem BioAssay data set” (2004).
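In this assay, cells in 96-well plates receive the compound at five concentrations for 48 hours. Endpoints are linearly interpolated between the surrounding concentrations. Here, GI50 denotes the concentration required for 50% inhibition of growth.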 Activity calls are given as the source filed them. Rule as the data show it: active = GI50 up to about 1.1 µM and inactive = higher.

Legend:
Assay in all cases: inhibition of tumour cell growth, NCI panel, 48 h
786-0 = system: 786-0
A498 = system: A498
A549 = system: A549
ACHN = system: ACHN
BT-549 = system: BT-549
CAKI-1 = system: CAKI-1
CCRF-CEM = system: CCRF-CEM
COLO 205 = system: COLO 205
DU-145 = system: DU-145
HCT-116 = system: HCT-116
HCT-15 = system: HCT-15
HL-60 = system: HL-60
HOP-92 = system: HOP-92
HT-29 = system: HT-29
Hs-578T = system: Hs-578T
IGROV-1 = system: IGROV-1
K562 = system: K562
KM12 = system: KM12
LOX IMVI = system: LOX IMVI
M14 = system: M14
MCF7 = system: MCF7
MDA-MB-231 = system: MDA-MB-231
MDA-MB-435 = system: MDA-MB-435
Malme-3M = system: Malme-3M
NCI-H226 = system: NCI-H226
NCI-H23 = system: NCI-H23
NCI-H460 = system: NCI-H460
NCI-H522 = system: NCI-H522
NCI/ADR-RES = system: NCI/ADR-RES
OVCAR-3 = system: OVCAR-3
OVCAR-4 = system: OVCAR-4
OVCAR-5 = system: OVCAR-5
OVCAR-8 = system: OVCAR-8
PC-3 = system: PC-3
RPMI-8226 = system: RPMI-8226
RXF 393 = system: RXF 393
SF-268 = system: SF-268
SF-295 = system: SF-295
SF-539 = system: SF-539
SK-MEL-28 = system: SK-MEL-28
SK-MEL-2 = system: SK-MEL-2
SK-MEL-5 = system: SK-MEL-5
SK-OV-3 = system: SK-OV-3
SNB-19 = system: SNB-19
SNB-75 = system: SNB-75
SR = system: SR
SW-620 = system: SW-620
T47D = system: T47D
TK-10 = system: TK-10
U-251 = system: U-251
UACC-257 = system: UACC-257
UACC-62 = system: UACC-62
UO-31 = system: UO-31

SMILES: CCc1cn2c(/C=N/N=C(N)N)c(-c3cc(C)c(Cl)cc3Cl)nc2s1
- GI50 (786-0): 847 nM (active)
- GI50 (A498): 1.77 µM (inactive)
- GI50 (A549): 1.67 µM (inactive)
- GI50 (ACHN): 1.68 µM (inactive)
- GI50 (BT-549): 1.64 µM (inactive)
- GI50 (CAKI-1): 1.27 µM (inactive)
- GI50 (CCRF-CEM): 209 nM (active)
- GI50 (COLO 205): 1.64 µM (inactive)
- GI50 (DU-145): 1.64 µM (inactive)
- GI50 (HCT-116): 785 nM (active)
- GI50 (HCT-15): 1620 nM
- GI50 (HL-60): 1.82 µM (inactive)
- GI50 (HOP-92): 1.64 µM (inactive)
- GI50 (HT-29): 1.22 µM (inactive)
- GI50 (Hs-578T): 1.71 µM (inactive)
- GI50 (IGROV-1): 1.69 µM (inactive)
- GI50 (K562): 1.01 µM (active)
- GI50 (KM12): 1.58 µM (inactive)
- GI50 (LOX IMVI): 1.35 µM (inactive)
- GI50 (M14): 1.65 µM (inactive)
- GI50 (MCF7): 1.71 µM (inactive)
- GI50 (MDA-MB-231): 865 nM (active)
- GI50 (MDA-MB-435): 1.41 µM (inactive)
- GI50 (Malme-3M): 1.37 µM (inactive)
- GI50 (NCI-H226): 1.26 µM (inactive)
- GI50 (NCI-H23): 1.77 µM (inactive)
- GI50 (NCI-H460): 1.86 µM (inactive)
- GI50 (NCI-H522): 1.87 µM (inactive)
- GI50 (NCI/ADR-RES): 3.95 µM (inactive)
- GI50 (OVCAR-3): 1.48 µM (inactive)
- GI50 (OVCAR-4): 1.42 µM (inactive)
- GI50 (OVCAR-5): 1.61 µM (inactive)
- GI50 (OVCAR-8): 1.58 µM (inactive)
- GI50 (PC-3): 1.56 µM (inactive)
- GI50 (RPMI-8226): 1.24 µM (inactive)
- GI50 (RXF 393): 1.74 µM (inactive)
- GI50 (SF-268): 1.98 µM (inactive)
- GI50 (SF-295): 700 nM (active)
- GI50 (SF-539): 1.74 µM (inactive)
- GI50 (SK-MEL-28): 1.48 µM (inactive)
- GI50 (SK-MEL-2): 1.82 µM (inactive)
- GI50 (SK-MEL-5): 1.63 µM (inactive)
- GI50 (SK-OV-3): 1.7 µM (inactive)
- GI50 (SNB-19): 1.54 µM (inactive)
- GI50 (SNB-75): 1.55 µM (inactive)
- GI50 (SR): 1.56 µM (inactive)
- GI50 (SW-620): 1.64 µM (inactive)
- GI50 (T47D): 1.4 µM (inactive)
- GI50 (TK-10): 1.97 µM (inactive)
- GI50 (U-251): 1.53 µM (inactive)
- GI50 (UACC-257): 1.4 µM (inactive)
- GI50 (UACC-62): 1.42 µM (inactive)
- GI50 (UO-31): 1.64 µM (inactive)
